Data set [1] relates to spontaneously hypertensive rats (SHR). Conditions: rat, in vivo, ip, 100 mg/kg.
Protocol: The systolic blood pressure was measured by using spontaneously hypertensive rats (SHR), which are a model of hypertension when examine the hypotensive activities of the compounds of the present invention and the positive Control compound. The rats were warmed for 5 minutes in a warming box at 55° C., and their blood pressure then measured by a tail cuff plethysmograph. The compounds of the present invention were administered singly and intraperitoneally at a dose of 100 mg/kg and the positive Control compound was administered singly and intraperitoneally at a dose of 10 mg/kg. […] Blood pressure measurements were taken before administration and 60 minutes after administration. Nicardipine was employed as the positive Control compound.
For data set [2], the system named is vincristine (VCR)-resistant mouse leukemia (P388/VCR) cells. In words: Antitumor agent potentiating effect in vincristine-resistant tumor bearing mouse (Example 12, i.p.). Type of data set: in vivo. As to the method:
(§1) The potentiating effect of the antitumor agent (T/V) % was determined according to the formula shown below. Verapamil was employed as the positive Control compound. […] In the Tables, Compound 1 is the compound obtained in Example 1, Compound 2 that obtained in Example 2, Compound 3 that obtained in Example 3, Compound 4 that obtained in Example 4, and Compound 5 that obtained in Example 5. [formula]
The potentiating effect of the antitumor agent (T/V) % was determined as described above (Example 11). Nicardipine was employed as the positive Control compound, and was administered intraperitoneally for 10 days. […] In the Tables, Compound 6 is the compound obtained in Example 6, Compound 7 that obtained in Example 7, and Compound 8 that obtained in Example 8.

For the next data set, the system named is ICR mice. The experiment in a line: acute toxicity test.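 Further: intraperitoneal dosing with deaths counted over 10 days of observation.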 Conditions: mouse, in vivo. As to the method: Male 6-week-old ICR mice were divided into groups of 2 to 5 mice per group. […] The drugs to be tested were administered in varying amounts of 250 to 2000 mg/kg to 5 or 7 groups (a geometrical series of .cent.2), at a dose volume of 10 ml/kg. In the Table, the respective compounds have the same meanings as described above.

Data set [3] concerns vincristine (VCR)-resistant mouse leukemia (P388/VCR) cells. In words: Antitumor agent potentiating effect in vincristine-resistant tumor bearing mouse (Example 11, i.p. 5 days). The class given is in vivo. As to the method:
as §1

A further data set relates to rat rectum smooth muscle. In words: Inhibitory effects on potassium contracture in rat rectum smooth muscle. The class given is cell-based. Conditions: 5 min, K contraction 5.6 to 56.0 mM, read-out: Inhibition ratio; for inhibition at 0.1 µM: 10^-7 M; for inhibition at 0.01 µM: 10^-8 M. The method, then: Rat rectum (about 1.5 cm) was isolated and suspended in a Magnus tube. A Locke solution was employed as the nutrient solution, and a contraction of the intestinum rectum was caused by changing the potassium (K) concentration of this solution from 5.6 mmol (mM) to 56.0 mM. This contraction was a contraction through a membrane dependent Ca-channel mediated contraction based on depolarization by a K concentration change. The contraction was recorded by an FD-transducer and polygraph. The compounds of the present invention were permitted to act 5 minutes before changing the K concentration, and simultaneously with changing the K concentration. […] A judgement was made 5 minutes after changing the K concentration, and the difference in contraction before the concentration change was indicated as an inhibition % value. Verapamil and nicardipine were employed as the positive control compound .

Setting [4] is: compound 100 mg/kg i.p. + VCR 30 μg/kg i.p.
Where [5] appears, read: compound alone 100 mg/kg i.p., no VCR.

Several values for one entry are separate records, joined by “and”; a condition that tells them apart may be missing. Equal entries are not always repeated.

Consider `CC1=C(C(=O)OCc2ccccn2)C(C2=CSCCS2)C(C(=O)OCc2ccccn2)=C(C)N1` [Compound 6, bis(2-pyridylmethyl) 4-[2-(5,6-dihydro-1,4-dithiinyl)]-2,6-dimethyl-1,4-dihydropyridine-3,5-dicarboxylate], for which, in data set [1], the Blood pressure change is recorded as -30 mmHg and the “Systolic Blood Pressure 60 minutes after administration” value stood at 191 mmHg. Further, in data set [2] (setting [4]), the “Potentiating effect T/V” value is 125%, the “Survival Days (Mean ± SD)” value worked out at 14.2 ± 1.2 days and the “Survival ratio T/C” value worked out at 138%. In data set [2] (setting [5]), the “Survival Days (Mean ± SD)” value was 10.8 ± 0.8 days and the “Survival ratio T/C” value turned out to be 105%. For the same molecule, the Mortality with ICR mice was 0/2 and 0/3.

Consider `CC1=C(C(=O)OCc2ccccn2)C(C2=COCCO2)C(C(=O)OCc2ccccn2)=C(C)N1` [Compound 1, bis(2-pyridylmethyl) 4-[2-(5,6-dihydro-p-dioxinyl)]-2,6-dimethyl-1,4-dihydropyridine-3,5-dicarboxylate], for which, in data set [3] (setting [4]), the “Potentiating effect T/V” value worked out at 116%, the “Survival Days (Mean ± SD)” value was 14.5 ± 1.6 days and the “Survival ratio T/C” value is on record as 121%. In data set [3] (setting [5]), the “Survival Days (Mean ± SD)” value was found to be 12.2 ± 0.8 days and the “Survival ratio T/C” value amounted to 102%. Further, in the data set on rat rectum smooth muscle, the inhibition at 0.1 µM amounted to 11.2%. Further, the Mortality in the data set on ICR mice is recorded as 0/2.

As to `CC1=C(C(=O)OCCCc2cccnc2)C(C2=COCCO2)C(C(=O)OCCCc2cccnc2)=C(C)N1` [Compound 3, bis[3-(3-pyridyl)propyl]4-[2-(5,6-dihydro-p-dioxinyl)]-2,6-dimethyl-1,4-dihydropyridine-3,5-dicarboxylate], in data set [3] (setting [4]), the “Potentiating effect T/V” value was found to be 130%, the “Survival Days (Mean ± SD)” value is 13.7 ± 1.5 days and the “Survival ratio T/C” value was 140%. Also, in data set [3] (setting [5]), the “Survival Days (Mean ± SD)” value is listed as 10.3 ± 0.5 days and the “Survival ratio T/C” value is 105%. In addition, in the data set with rat rectum smooth muscle, the inhibition at 0.1 µM was -4.2% and the inhibition at 0.01 µM was -11.5%. Further, the Mortality in the data set on ICR mice is 4/4 and 3/4 and 1/5 and 2/5 and 0/5.

On to `CC1=C(C(=O)OCc2cccc(C)n2)C(C2=COCCO2)C(C(=O)OCc2cccc(C)n2)=C(C)N1` [Compound 2], for which, in data set [3] (setting [4]), the “Potentiating effect T/V” value was 130%, the “Survival Days (Mean ± SD)” value is listed as 13.7 ± 1.0 days and the “Survival ratio T/C” value is given as 140%. In data set [3] (setting [5]), the “Survival Days (Mean ± SD)” value came to 10.3 ± 0.5 days and the “Survival ratio T/C” value is on record as 105%. Further, in data set [1], the Blood pressure change is listed as -15 mmHg and the “Systolic Blood Pressure 60 minutes after administration” value was 204 mmHg. In the data set with rat rectum smooth muscle, the inhibition at 0.1 µM is -2.1% and the inhibition at 0.01 µM is -5.6%. Besides, in the data set on ICR mice, the Mortality is 0/4 and 1/5 and 0/5.

(Values after US4985558A, “1,4-dihydropyridine derivative” (Nikken Chemicals Co., Ltd., priority 1988, dated 1991).)
